A word on the inhibition: it is the relative decrease from the control value, in per cent.

Here are results for 1 compound from patent publication US12478595B1, “Organoselenium compound for treating cancer” (IMAM MOHAMMAD IBN SAUD ISLAMIC UNIVERSITY, priority 2024, dated 2025).

SMILES strings stand for the structures.

Type in all cases: cell-based
Test [1] has as its system HN9 (human squamous cell carcinoma of the oral tongue). Kind of test: growth inhibition of HN9 cancer cell line. Particulars: read-out: growth inhibition percentage.
The subject of test [2] is HEPG2 (hepatocellular carcinoma). Kind of test: growth inhibition of HEPG2 cancer cell line. Particulars: Homo sapiens, HepG2, read-out: growth inhibition percentage.
Test [3] concerns HuH7 (hepatocellular carcinoma). Kind of test: growth inhibition of HuH7 cancer cell line. To be noted: Homo sapiens, Huh-7, read-out: growth inhibition percentage.
The subject of test [4] is HCT116 (colorectal carcinoma). Kind of test: growth inhibition of HCT116 cancer cell line. Particulars: Homo sapiens, HCT-116, read-out: growth inhibition percentage.
Test [5] has as its system A549 (non-small cell lung cancer). Kind of test: growth inhibition of A549 cancer cell line. Particulars: Homo sapiens, A549, read-out: growth inhibition percentage.
For a further test, the system named is A375 (melanoma cancer). Kind of test: growth inhibition of A375 cancer cell line. To be noted: Homo sapiens, A-375, read-out: growth inhibition percentage.
The test system of test [6] is normal oral epithelial cell line (OEC). As to the kind of experiment: growth inhibition of OEC non-cancer cell line. Particulars: read-out: growth inhibition percentage.

As to `C[Se]c1ccc(NC(=O)NCC2(C)CC(NC(=O)Nc3ccc([Se]C)cc3)CC(C)(C)C2)cc1` (stereo not shown) [HB188, 1-(4-(methylselanyl)phenyl)-3-((1,3,3-trimethyl-5-(3-(4-(methylselanyl)phenyl)ureido)cyclohexyl)methyl)urea], the inhibition at 100 µg/mL in test [1] was determined as 74%; in test [2], 76.2%; in test [3], 88.6%; in test [4], 85.3%; in test [5] it was 74.4%; with A375 (melanoma cancer), 66.8%. Further, the inhibition at 100 µg/mL in test [6] turned out to be 32.7%.
